Key:
Experiment in all cases: BIO3-BIO1 mutant enzyme activity in the presence of herbicide, percentage inhibition (fluorometric DAPA assay)
Assay type in all cases: biochemical
Details in all cases: read-out: percentage inhibition
[1] = target: T1, Arabidopsis thaliana BIO3-BIO1 (BioDA) mutants (Arabidopsis thaliana, UniProt B0F481, V354E)
T1 construct: with the predicted N-terminal mitochondrial transit peptide removed; 6xHis-tag (N); thrombin cleavage site (N); made in house; host or cells: E. coli BL21 (DE3) bioA
T1 sequence (B0F481 23-833 V354E): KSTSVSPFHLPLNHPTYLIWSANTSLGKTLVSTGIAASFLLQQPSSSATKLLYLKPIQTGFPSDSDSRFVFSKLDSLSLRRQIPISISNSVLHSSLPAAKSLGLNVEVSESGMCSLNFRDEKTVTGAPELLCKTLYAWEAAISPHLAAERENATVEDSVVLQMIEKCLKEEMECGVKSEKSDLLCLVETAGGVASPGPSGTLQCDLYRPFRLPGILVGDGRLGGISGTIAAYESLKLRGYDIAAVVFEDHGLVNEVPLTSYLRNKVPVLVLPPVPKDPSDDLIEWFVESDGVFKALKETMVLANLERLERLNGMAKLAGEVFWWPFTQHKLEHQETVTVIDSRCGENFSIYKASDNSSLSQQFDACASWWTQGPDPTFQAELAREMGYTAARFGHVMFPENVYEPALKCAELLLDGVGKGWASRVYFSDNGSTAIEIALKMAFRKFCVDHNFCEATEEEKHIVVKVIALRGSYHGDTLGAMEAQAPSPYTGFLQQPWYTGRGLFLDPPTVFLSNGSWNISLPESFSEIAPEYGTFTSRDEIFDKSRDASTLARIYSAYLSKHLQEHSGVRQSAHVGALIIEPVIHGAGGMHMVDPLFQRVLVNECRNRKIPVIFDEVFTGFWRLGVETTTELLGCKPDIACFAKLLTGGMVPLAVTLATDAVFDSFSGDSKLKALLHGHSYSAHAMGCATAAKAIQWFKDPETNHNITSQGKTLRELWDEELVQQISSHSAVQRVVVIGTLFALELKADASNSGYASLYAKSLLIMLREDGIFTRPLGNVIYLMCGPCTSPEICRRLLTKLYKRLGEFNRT
In short: (§1)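 Percentage inhibition compares activity at one of three herbicide concentrations against DMSO, from o-phthalaldehyde-derivatised DAPA fluorescence (ex 410, em 470 nm). Purified N-His BIO3-BIO1 variants (50 nM, E. coli-expressed) saw herbicide 10 min at 20 °C in pH 8.6 EPPS buffer, then 20 μM KAPA plus 100 μM spermidine for 75 min at 20 °C.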

[2] = target: T2, Arabidopsis thaliana BIO3-BIO1 (BioDA) mutants (Arabidopsis thaliana, UniProt B0F481, F348N)
T2 construct: with the predicted N-terminal mitochondrial transit peptide removed; 6xHis-tag (N); thrombin cleavage site (N); made in house; host or cells: E. coli BL21 (DE3) bioA
T2 sequence (B0F481 23-833 F348N): as the sequence (B0F481 23-833 V354E) above, with F326N, E332V counted along it
In short: as §1

[3] = target: T3, Arabidopsis thaliana BIO3-BIO1 (BioDA) mutants (Arabidopsis thaliana, UniProt B0F481, P421W)
T3 construct: with the predicted N-terminal mitochondrial transit peptide removed; 6xHis-tag (N); thrombin cleavage site (N); made in house; host or cells: E. coli BL21 (DE3) bioA
T3 sequence (B0F481 23-833 P421W): as the sequence (B0F481 23-833 V354E) above, with E332V, P399W counted along it
In short: as §1

[4] = target: T4, Arabidopsis thaliana BIO3-BIO1 (BioDA) mutants (Arabidopsis thaliana, UniProt B0F481, S509I)
T4 construct: with the predicted N-terminal mitochondrial transit peptide removed; 6xHis-tag (N); thrombin cleavage site (N); made in house; host or cells: E. coli BL21 (DE3) bioA
T4 sequence (B0F481 23-833 S509I): as the sequence (B0F481 23-833 V354E) above, with E332V, S487I counted along it
In short: as §1

[5] = target: T5, Arabidopsis thaliana BIO3-BIO1 (BioDA) mutants (Arabidopsis thaliana, UniProt B0F481, A609C)
T5 construct: with the predicted N-terminal mitochondrial transit peptide removed; 6xHis-tag (N); thrombin cleavage site (N); made in house; host or cells: E. coli BL21 (DE3) bioA
T5 sequence (B0F481 23-833 A609C): as the sequence (B0F481 23-833 V354E) above, with E332V, A587C counted along it
In short: as §1

[6] = target: T6, Arabidopsis thaliana BIO3-BIO1 (BioDA) mutants (Arabidopsis thaliana, UniProt B0F481, Q517H)
T6 construct: with the predicted N-terminal mitochondrial transit peptide removed; 6xHis-tag (N); thrombin cleavage site (N); made in house; host or cells: E. coli BL21 (DE3) bioA
T6 sequence (B0F481 23-833 Q517H): as the sequence (B0F481 23-833 V354E) above, with E332V, Q495H counted along it
In short: as §1

[7] = target: T7, Arabidopsis thaliana BIO3-BIO1 (BioDA) mutants (Arabidopsis thaliana, UniProt B0F481, F370L)
T7 construct: with the predicted N-terminal mitochondrial transit peptide removed; 6xHis-tag (N); thrombin cleavage site (N); made in house; host or cells: E. coli BL21 (DE3) bioA
T7 sequence (B0F481 23-833 F370L): as the sequence (B0F481 23-833 V354E) above, with E332V, F348L counted along it
In short: as §1

[8] = target: T8, Arabidopsis thaliana BIO3-BIO1 (BioDA) mutants (Arabidopsis thaliana, UniProt B0F481, Q517W)
T8 construct: with the predicted N-terminal mitochondrial transit peptide removed; 6xHis-tag (N); thrombin cleavage site (N); made in house; host or cells: E. coli BL21 (DE3) bioA
T8 sequence (B0F481 23-833 Q517W): as the sequence (B0F481 23-833 V354E) above, with E332V, Q495W counted along it
In short: as §1

[9] = target: T9, Arabidopsis thaliana BIO3-BIO1 (BioDA) mutants (Arabidopsis thaliana, UniProt B0F481, V354A)
T9 construct: with the predicted N-terminal mitochondrial transit peptide removed; 6xHis-tag (N); thrombin cleavage site (N); made in house; host or cells: E. coli BL21 (DE3) bioA
T9 sequence (B0F481 23-833 V354A): as the sequence (B0F481 23-833 V354E) above, with E332A counted along it
In short: as §1

[10] = target: T10, Arabidopsis thaliana BIO3-BIO1 (BioDA) mutants (Arabidopsis thaliana, UniProt B0F481, S390C)
T10 construct: with the predicted N-terminal mitochondrial transit peptide removed; 6xHis-tag (N); thrombin cleavage site (N); made in house; host or cells: E. coli BL21 (DE3) bioA
T10 sequence (B0F481 23-833 S390C): as the sequence (B0F481 23-833 V354E) above, with E332V, S368C counted along it
In short: as §1

[11] = target: T11, Arabidopsis thaliana BIO3-BIO1 (BioDA) mutants (Arabidopsis thaliana, UniProt B0F481, F348A)
T11 construct: with the predicted N-terminal mitochondrial transit peptide removed; 6xHis-tag (N); thrombin cleavage site (N); made in house; host or cells: E. coli BL21 (DE3) bioA
T11 sequence (B0F481 23-833 F348A): as the sequence (B0F481 23-833 V354E) above, with F326A, E332V counted along it
In short: as §1

[12] = target: T12, Arabidopsis thaliana BIO3-BIO1 (BioDA) mutants (Arabidopsis thaliana, UniProt B0F481, T512W)
T12 construct: with the predicted N-terminal mitochondrial transit peptide removed; 6xHis-tag (N); thrombin cleavage site (N); made in house; host or cells: E. coli BL21 (DE3) bioA
T12 sequence (B0F481 23-833 T512W): as the sequence (B0F481 23-833 V354E) above, with E332V, T490W counted along it
In short: as §1

| SMILES | inhibition at 0.2 µM [1] [%] | inhibition at 1 µM [1] [%] | inhibition at 5 µM [1] [%] | inhibition at 0.2 µM [2] [%] | inhibition at 1 µM [2] [%] | inhibition at 5 µM [2] [%] | inhibition at 0.2 µM [3] [%] | inhibition at 1 µM [3] [%] | inhibition at 5 µM [3] [%] | inhibition at 0.2 µM [4] [%] | inhibition at 1 µM [4] [%] | inhibition at 5 µM [4] [%] | inhibition at 1 µM [5] [%] | inhibition at 1 µM [6] [%] | inhibition at 1 µM [7] [%] | inhibition at 1 µM [8] [%] | inhibition at 1 µM [9] [%] | inhibition at 1 µM [10] [%] | inhibition at 1 µM [11] [%] | inhibition at 1 µM [12] [%] | further results |
| --- | --- | --- | --- | --- | --- | --- | --- | --- | --- | --- | --- | --- | --- | --- | --- | --- | --- | --- | --- | --- | --- |
| CCn1c(-c2ccc(Cl)c(Cl)c2)c(C(=O)O)c(=O)c2cc(F)ccc21 [Compound M, 2-(3,4-dichlorophenyl)-1-ethyl-6-fluoro-4-oxo-quinoline-3-carboxylic acid] | 0 | 0 | 23 | 0 | 1 | 15 | 0 | 0 | 18 | 30 | 65 | 92 | 47 | 37 | 25 | 51 | 13 | 44 | 0 | 55 | inhibition at 0.2 µM [5]: 10%; inhibition at 5 µM [5]: 78%; inhibition at 0.2 µM [6]: 6%; inhibition at 5 µM [6]: 71%; inhibition at 0.2 µM [7]: 0%; inhibition at 5 µM [7]: 80%; inhibition at 0.2 µM [8]: 26%; inhibition at 5 µM [8]: 79%; inhibition at 0.2 µM [9]: 6%; inhibition at 5 µM [9]: 65%; inhibition at 0.2 µM [10]: 16%; inhibition at 5 µM [10]: 74%; inhibition at 0.2 µM [11]: 0%; inhibition at 5 µM [11]: 6%; inhibition at 0.2 µM [12]: 33%; inhibition at 5 µM [12]: 83% |
| CCn1c(C)c(-c2ccc(F)cc2F)c(=O)c(C(=O)O)c1-c1ccc(Cl)c(Cl)c1 [Compound C, 2-(3,4-dichlorophenyl)-5-(2,4-difluorophenyl)-1-ethyl-6-methyl-4-oxo-pyridine-3-carboxylic acid] | 0 | 0 | 39 | 0 | 2 | 17 | 0 | 15 | 37 | 38 | 84 | 99 | 73 | 44 | 24 | 72 | 26 | 55 | 0 | 83 | inhibition at 0.2 µM [5]: 29%; inhibition at 5 µM [5]: 94%; inhibition at 0.2 µM [6]: 11%; inhibition at 5 µM [6]: 77%; inhibition at 0.2 µM [7]: 19%; inhibition at 5 µM [7]: 82%; inhibition at 0.2 µM [8]: 29%; inhibition at 5 µM [8]: 90%; inhibition at 0.2 µM [9]: 0%; inhibition at 5 µM [9]: 75%; inhibition at 0.2 µM [10]: 27%; inhibition at 5 µM [10]: 83%; inhibition at 0.2 µM [11]: 7%; inhibition at 5 µM [11]: 1%; inhibition at 0.2 µM [12]: 50%; inhibition at 5 µM [12]: 95% |
| CCOC(=O)c1nn(-c2ccc3c(c2)OC(F)(F)C(F)(F)O3)c2cccc(C(C)=O)c2c1=O [Compound A, ethyl 5-acetyl-4-oxo-1-(2,2,3,3-tetrafluoro-1,4-benzodioxin-6-yl)cinnoline-3-carboxylate] |  | 25 |  |  | 2 |  |  | 21 |  |  | 0 |  | 18 | 0 | 15 | 9 | 9 | 21 | 4 | 0 |  |
| CCn1c(Cn2ccc(C(F)(F)F)n2)cc(=O)c(C(=O)O)c1-c1ccc(Cl)c(Cl)c1 [Compound L, 2-(3,4-dichlorophenyl)-1-ethyl-4-oxo-6-[[3-(trifluoromethyl)pyrazol-1-yl]methyl]pyridine-3-carboxylic acid] |  |  |  |  |  |  |  |  |  |  |  |  |  |  |  |  |  |  |  |  | inhibition at 0.01 µM [2]: 0%; inhibition at 0.075 µM [2]: 0%; inhibition at 0.5 µM [2]: 21%; inhibition at 0.01 µM [3]: 0%; inhibition at 0.075 µM [3]: 8%; inhibition at 0.5 µM [3]: 27%; inhibition at 0.01 µM [5]: 4%; inhibition at 0.075 µM [5]: 22%; inhibition at 0.5 µM [5]: 30%; inhibition at 0.01 µM [7]: 0%; inhibition at 0.075 µM [7]: 14%; inhibition at 0.5 µM [7]: 38%; inhibition at 0.01 µM [11]: 1%; inhibition at 0.075 µM [11]: 0%; inhibition at 0.5 µM [11]: 3% |
